Test results reported in ChEMBL document CHEMBL2321764, “Synthesis and antibacterial activities of new piperidine substituted (5R)-[1,2,3]triazolylmethyl and (5R)-[(4-F-[1,2,3]triazolyl)methyl] oxazolidinones” (Bioorg Med Chem Lett, 2013).
pIC50: −log10 of the molar value. Values after ≈ are worked out from the molar mass of the structure shown.

What was measured:
[1] = tested on: Streptococcus pyogenes; assay: Antibacterial activity against Streptococcus pyogenes 308A by agar dilution method; assay type: functional
[2] = tested on: Staphylococcus; assay: Antibacterial activity against methicillin-resistant coagulase negative Staphylococcus by agar dilution method; assay type: functional
[3] = tested on: Enterococcus faecalis; assay: Antibacterial activity against vancomycin-resistant Enterococcus faecalis C474 by agar dilution method; assay type: functional
[4] = tested on: Staphylococcus aureus; assay: Antibacterial activity against methicillin-resistant Staphylococcus aureus C463 by agar dilution method; assay type: functional
[5] = tested on: Enterococcus faecium; assay: Antibacterial activity against vancomycin-resistant Enterococcus faecium C803 by agar dilution method; assay type: functional
[6] = tested on: Streptococcus pneumoniae; assay: Antibacterial activity against penicillin-resistant Streptococcus pneumoniae C402 by agar dilution method; assay type: functional
[7] = tested on: Streptococcus agalactiae; assay: Antibacterial activity against Streptococcus agalactiae ATCC 2901 by agar dilution method; assay type: functional
[8] = tested on: Haemophilus influenzae; assay: Antibacterial activity against betalactamase positive Haemophilus influenzae by agar dilution method; assay type: functional
[9] = molecular target: CYP2C9 (Homo sapiens, UniProt P11712); assay: Inhibition of CYP2C9 (unknown origin) assessed as residual activity at 10 uM; assay type: ADME; details: read-out: INH
CYP2C9, sequence (P11712 whole entry): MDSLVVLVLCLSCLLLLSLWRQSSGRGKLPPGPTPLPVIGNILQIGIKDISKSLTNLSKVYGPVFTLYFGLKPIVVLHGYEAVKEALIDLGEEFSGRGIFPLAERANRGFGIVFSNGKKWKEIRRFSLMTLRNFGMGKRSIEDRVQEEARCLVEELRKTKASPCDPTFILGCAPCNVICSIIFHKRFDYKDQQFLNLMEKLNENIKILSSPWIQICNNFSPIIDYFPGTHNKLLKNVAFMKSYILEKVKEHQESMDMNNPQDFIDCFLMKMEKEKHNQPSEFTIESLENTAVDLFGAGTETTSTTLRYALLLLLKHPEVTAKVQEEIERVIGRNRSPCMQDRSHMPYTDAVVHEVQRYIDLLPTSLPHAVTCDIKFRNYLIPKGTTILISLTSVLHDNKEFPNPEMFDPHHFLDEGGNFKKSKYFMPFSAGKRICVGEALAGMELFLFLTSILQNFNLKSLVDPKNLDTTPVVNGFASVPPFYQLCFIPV

[10] = molecular target: Voltage-gated inwardly rectifying potassium channel KCNH2 (Homo sapiens, UniProt Q12809); assay: Inhibition of human hERG by automated patch clamp assay
Voltage-gated inwardly rectifying potassium channel KCNH2, sequence (Q12809 whole entry): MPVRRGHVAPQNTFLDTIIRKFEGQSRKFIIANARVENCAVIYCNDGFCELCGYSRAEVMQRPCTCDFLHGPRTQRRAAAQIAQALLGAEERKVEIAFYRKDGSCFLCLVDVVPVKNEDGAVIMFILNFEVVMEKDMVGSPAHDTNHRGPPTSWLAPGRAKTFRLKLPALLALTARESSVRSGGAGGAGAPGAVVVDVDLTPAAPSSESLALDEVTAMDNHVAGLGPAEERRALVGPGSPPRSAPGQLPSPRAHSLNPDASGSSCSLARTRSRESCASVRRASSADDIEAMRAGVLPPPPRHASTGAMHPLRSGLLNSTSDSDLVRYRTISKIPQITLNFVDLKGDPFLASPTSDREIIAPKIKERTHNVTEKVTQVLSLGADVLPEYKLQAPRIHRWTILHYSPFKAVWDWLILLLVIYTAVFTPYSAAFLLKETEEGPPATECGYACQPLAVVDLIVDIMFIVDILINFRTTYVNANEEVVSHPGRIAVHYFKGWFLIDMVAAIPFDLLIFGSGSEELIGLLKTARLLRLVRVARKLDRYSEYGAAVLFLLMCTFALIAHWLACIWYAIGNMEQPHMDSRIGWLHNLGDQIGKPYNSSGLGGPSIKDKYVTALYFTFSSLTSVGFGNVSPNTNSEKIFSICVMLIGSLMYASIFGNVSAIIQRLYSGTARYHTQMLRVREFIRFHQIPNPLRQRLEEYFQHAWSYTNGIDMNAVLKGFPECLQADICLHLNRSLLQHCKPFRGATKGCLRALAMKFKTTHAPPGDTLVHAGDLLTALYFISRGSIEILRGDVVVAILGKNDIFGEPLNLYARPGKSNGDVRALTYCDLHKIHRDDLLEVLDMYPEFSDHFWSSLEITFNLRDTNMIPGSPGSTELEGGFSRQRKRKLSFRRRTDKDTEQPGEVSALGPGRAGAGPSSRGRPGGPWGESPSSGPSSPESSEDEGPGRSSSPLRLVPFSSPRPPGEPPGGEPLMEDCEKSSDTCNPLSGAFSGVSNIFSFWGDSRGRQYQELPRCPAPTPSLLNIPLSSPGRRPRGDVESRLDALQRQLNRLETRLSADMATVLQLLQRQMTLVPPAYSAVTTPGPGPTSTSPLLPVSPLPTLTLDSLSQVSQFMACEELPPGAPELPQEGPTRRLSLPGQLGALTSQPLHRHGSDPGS

[11] = molecular target: T1, CYP1A2 (Homo sapiens, UniProt P05177); assay: Inhibition of CYP1A2 (unknown origin) assessed as residual activity at 10 uM; assay type: ADME; details: read-out: INH
T1 sequence (P05177 whole entry): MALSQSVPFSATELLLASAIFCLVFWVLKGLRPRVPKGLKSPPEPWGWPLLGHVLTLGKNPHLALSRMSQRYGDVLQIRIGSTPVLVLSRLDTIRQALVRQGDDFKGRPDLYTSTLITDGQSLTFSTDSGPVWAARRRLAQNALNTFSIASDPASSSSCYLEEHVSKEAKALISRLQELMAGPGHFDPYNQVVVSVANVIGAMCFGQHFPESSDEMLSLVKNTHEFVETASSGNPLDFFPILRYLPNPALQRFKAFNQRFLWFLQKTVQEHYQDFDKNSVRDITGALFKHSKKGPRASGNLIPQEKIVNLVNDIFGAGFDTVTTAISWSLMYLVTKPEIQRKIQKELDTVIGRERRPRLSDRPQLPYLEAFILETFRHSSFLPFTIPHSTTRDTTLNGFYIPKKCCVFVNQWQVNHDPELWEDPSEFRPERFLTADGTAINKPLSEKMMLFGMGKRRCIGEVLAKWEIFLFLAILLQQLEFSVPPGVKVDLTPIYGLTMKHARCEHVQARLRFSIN

[12] = molecular target: CYP2D6 (Homo sapiens, UniProt P10635); assay: Inhibition of CYP2D6 (unknown origin) assessed as residual activity at 10 uM; assay type: ADME; details: read-out: INH
CYP2D6, sequence (P10635 whole entry): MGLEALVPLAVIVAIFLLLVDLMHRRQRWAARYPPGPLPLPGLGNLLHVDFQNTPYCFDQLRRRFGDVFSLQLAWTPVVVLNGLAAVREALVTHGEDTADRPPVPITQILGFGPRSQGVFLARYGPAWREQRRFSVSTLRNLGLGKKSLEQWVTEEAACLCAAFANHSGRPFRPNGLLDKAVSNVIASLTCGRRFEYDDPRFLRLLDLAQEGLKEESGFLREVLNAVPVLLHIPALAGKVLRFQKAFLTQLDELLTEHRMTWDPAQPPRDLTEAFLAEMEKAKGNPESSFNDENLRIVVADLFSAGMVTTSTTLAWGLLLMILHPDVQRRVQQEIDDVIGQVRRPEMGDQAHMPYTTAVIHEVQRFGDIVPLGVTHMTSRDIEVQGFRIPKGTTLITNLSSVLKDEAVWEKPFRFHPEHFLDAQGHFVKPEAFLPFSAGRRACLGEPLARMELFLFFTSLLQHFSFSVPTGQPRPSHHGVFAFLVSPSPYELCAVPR

[13] = molecular target: T2, MAO-A (Homo sapiens, UniProt P21397); assay: Inhibition of human MAO-A assessed as residual activity at 10 uM; details: read-out: INH
T2 sequence (P21397 whole entry): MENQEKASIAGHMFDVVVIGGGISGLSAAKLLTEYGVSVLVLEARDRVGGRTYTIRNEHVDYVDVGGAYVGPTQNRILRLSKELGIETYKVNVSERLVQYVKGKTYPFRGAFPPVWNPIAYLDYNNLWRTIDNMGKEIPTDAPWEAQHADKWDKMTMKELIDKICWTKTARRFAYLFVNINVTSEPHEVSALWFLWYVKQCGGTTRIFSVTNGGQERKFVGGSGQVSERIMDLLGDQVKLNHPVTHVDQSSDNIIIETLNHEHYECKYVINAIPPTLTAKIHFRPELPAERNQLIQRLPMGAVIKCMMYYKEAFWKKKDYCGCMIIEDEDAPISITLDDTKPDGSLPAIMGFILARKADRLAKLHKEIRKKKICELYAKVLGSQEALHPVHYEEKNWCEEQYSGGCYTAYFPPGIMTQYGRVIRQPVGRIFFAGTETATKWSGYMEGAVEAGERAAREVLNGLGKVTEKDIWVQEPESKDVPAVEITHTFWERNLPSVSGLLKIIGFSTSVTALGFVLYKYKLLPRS

[14] = molecular target: CYP3A4 (Homo sapiens, UniProt P08684); assay: Inhibition of CYP3A4 (unknown origin) assessed as residual activity at 10 uM; assay type: ADME; details: read-out: INH
CYP3A4, sequence (P08684 whole entry): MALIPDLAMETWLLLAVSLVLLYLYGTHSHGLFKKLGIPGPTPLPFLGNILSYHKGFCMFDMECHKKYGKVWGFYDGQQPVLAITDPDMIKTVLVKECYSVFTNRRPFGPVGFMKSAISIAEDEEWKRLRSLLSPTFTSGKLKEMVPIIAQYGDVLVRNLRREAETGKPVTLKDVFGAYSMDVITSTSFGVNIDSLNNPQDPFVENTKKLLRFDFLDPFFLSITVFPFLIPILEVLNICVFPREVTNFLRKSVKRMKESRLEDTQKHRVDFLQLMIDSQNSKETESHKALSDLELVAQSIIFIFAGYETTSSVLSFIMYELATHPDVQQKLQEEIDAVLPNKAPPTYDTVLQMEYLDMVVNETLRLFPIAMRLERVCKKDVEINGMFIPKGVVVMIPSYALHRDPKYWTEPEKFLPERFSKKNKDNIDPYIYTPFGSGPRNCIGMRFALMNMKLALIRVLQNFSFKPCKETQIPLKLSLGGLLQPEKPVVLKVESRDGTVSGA

[15] = molecular target: T3, MAO-B (Homo sapiens, UniProt P27338); assay: Inhibition of human MAO-B assessed as residual activity at 10 uM; details: read-out: INH
T3 sequence (P27338 whole entry): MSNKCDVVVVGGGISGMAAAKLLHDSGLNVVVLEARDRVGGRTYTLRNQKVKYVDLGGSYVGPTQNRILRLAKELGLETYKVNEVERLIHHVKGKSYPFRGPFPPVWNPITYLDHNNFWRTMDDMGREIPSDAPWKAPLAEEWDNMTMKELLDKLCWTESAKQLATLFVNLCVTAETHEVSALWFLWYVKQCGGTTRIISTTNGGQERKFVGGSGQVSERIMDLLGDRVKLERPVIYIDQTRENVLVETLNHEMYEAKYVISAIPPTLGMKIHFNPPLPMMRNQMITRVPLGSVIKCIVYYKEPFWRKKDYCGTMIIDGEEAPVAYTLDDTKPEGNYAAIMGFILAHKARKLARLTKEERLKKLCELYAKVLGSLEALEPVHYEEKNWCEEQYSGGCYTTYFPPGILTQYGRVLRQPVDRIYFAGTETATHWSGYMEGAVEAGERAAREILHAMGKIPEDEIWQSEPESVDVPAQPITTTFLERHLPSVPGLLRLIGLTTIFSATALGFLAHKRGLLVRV

Compound | MIC [1] [µg/mL] | MIC [2] [µg/mL] | MIC [3] [µg/mL] | MIC [4] [µg/mL] | MIC [5] [µg/mL] | MIC [6] [µg/mL] | MIC [7] [µg/mL] | MIC [8] [µg/mL] | activity at 10 µM [9] [%] | pIC50 [10] | activity at 10 µM [11] [%] | activity at 10 µM [12] [%] | activity at 10 µM [13] [%] | activity at 10 µM [14] [%] | activity at 10 µM [15] [%]
N#CCC1=CCN(c2ccc(N3C[C@H](Cn4ccnn4)OC3=O)cc2F)CC1 | 0.39 (≈ 1.02 µM) | 3.12 (≈ 8.16 µM) | 3.12 (≈ 8.16 µM) | 3.12 (≈ 8.16 µM) | 3.12 (≈ 8.16 µM) | 0.39 (≈ 1.02 µM) | 1.56 (≈ 4.08 µM) | 1.56 (≈ 4.08 µM) |  |  |  |  |  |  | 
N#CCC1=CCN(c2ccc(N3C[C@H](Cn4cc(F)nn4)OC3=O)cc2F)CC1 | 25 (≈ 62.4 µM) | 100 (≈ 250 µM) | 100 (≈ 250 µM) | 100 (≈ 250 µM) | 100 (≈ 250 µM) | 50 (≈ 125 µM) | 25 (≈ 62.4 µM) | 12.5 (≈ 31.2 µM) |  |  |  |  |  |  | 
CCOC(=O)CC1=CCN(c2ccc(N3C[C@H](Cn4ccnn4)OC3=O)cc2F)CC1 | 1.56 (≈ 3.63 µM) | 6.25 (≈ 14.6 µM) | 6.25 (≈ 14.6 µM) | 6.25 (≈ 14.6 µM) | 6.25 (≈ 14.6 µM) | 1.56 (≈ 3.63 µM) | 1.56 (≈ 3.63 µM) | 3.12 (≈ 7.27 µM) |  |  |  |  |  |  | 
N#CC=C1CCN(c2ccc(N3C[C@H](Cn4ccnn4)OC3=O)cc2F)CC1 | 0.39 (≈ 1.02 µM) | 3.12 (≈ 8.16 µM) | 3.12 (≈ 8.16 µM) | 3.12 (≈ 8.16 µM) | 1.56 (≈ 4.08 µM) | 0.39 (≈ 1.02 µM) | 0.78 (≈ 2.04 µM) | 0.78 (≈ 2.04 µM) | 88 | 4.31 | 55.2 | 80.9 | 3.54 | 32 | 111
N#CC=C1CCN(c2ccc(N3C[C@H](Cn4cc(F)nn4)OC3=O)cc2F)CC1 | 50 (≈ 125 µM) | 100 (≈ 250 µM) | 50 (≈ 125 µM) | 50 (≈ 125 µM) | 50 (≈ 125 µM) | 6.25 (≈ 15.6 µM) | 100 (≈ 250 µM) | 6.25 (≈ 15.6 µM) | 66.6 |  | 91.8 | 117 | 50.6 | 23.6 | 19.5
CCOC(=O)C=C1CCN(c2ccc(N3C[C@H](Cn4ccnn4)OC3=O)cc2F)CC1 | 6.25 (≈ 14.6 µM) | 25 (≈ 58.2 µM) | 25 (≈ 58.2 µM) | 25 (≈ 58.2 µM) | 25 (≈ 58.2 µM) | 6.25 (≈ 14.6 µM) | 12.5 (≈ 29.1 µM) | 12.5 (≈ 29.1 µM) |  |  |  |  |  |  | 
CCOC(=O)C=C1CCN(c2ccc(N3C[C@H](Cn4cc(F)nn4)OC3=O)cc2F)CC1 | 50 (≈ 112 µM) | 100 (≈ 223 µM) | 100 (≈ 223 µM) | 100 (≈ 223 µM) | 100 (≈ 223 µM) | 6.25 (≈ 14 µM) | 100 (≈ 223 µM) | 6.25 (≈ 14 µM) |  |  |  |  |  |  | 
COC(=O)C=C1CCN(c2ccc(N3C[C@H](Cn4ccnn4)OC3=O)cc2F)CC1 | 0.78 (≈ 1.88 µM) | 3.12 (≈ 7.51 µM) | 3.12 (≈ 7.51 µM) | 3.12 (≈ 7.51 µM) | 6.25 (≈ 15 µM) | 0.78 (≈ 1.88 µM) | 1.56 (≈ 3.76 µM) | 1.56 (≈ 3.76 µM) |  |  |  |  |  |  | 
CCOC(=O)C(C)=C1CCN(c2ccc(N3C[C@H](Cn4ccnn4)OC3=O)cc2F)CC1 | 0.78 (≈ 1.76 µM) | 12.5 (≈ 28.2 µM) | 6.25 (≈ 14.1 µM) | 12.5 (≈ 28.2 µM) | 6.25 (≈ 14.1 µM) | 0.78 (≈ 1.76 µM) | 1.56 (≈ 3.52 µM) | 1.56 (≈ 3.52 µM) |  |  |  |  |  |  | 
CCOC(=O)C(C)=C1CCN(c2ccc(N3C[C@H](Cn4cc(F)nn4)OC3=O)cc2F)CC1 | 100 (≈ 217 µM) | 100 (≈ 217 µM) | 100 (≈ 217 µM) | 100 (≈ 217 µM) | 100 (≈ 217 µM) | 100 (≈ 217 µM) | 100 (≈ 217 µM) | 100 (≈ 217 µM) |  |  |  |  |  |  | 
